Assay results reported in publication PMC7203344, “Sirtuin 1 Inhibiting Thiocyanates (S1th)—A New Class of Isotype Selective Inhibitors of NAD^+ Dependent Lysine Deacetylases” (Frontiers in Oncology, 2020).

Assays:
HDAC6 = target: T1, HDAC6 (Homo sapiens, UniProt Q9UBN7); assay: Homogeneous ZMAL-based fluorescence assay for HDAC6; assay type: biochemical
T1 sequence (Q9UBN7 1-1215): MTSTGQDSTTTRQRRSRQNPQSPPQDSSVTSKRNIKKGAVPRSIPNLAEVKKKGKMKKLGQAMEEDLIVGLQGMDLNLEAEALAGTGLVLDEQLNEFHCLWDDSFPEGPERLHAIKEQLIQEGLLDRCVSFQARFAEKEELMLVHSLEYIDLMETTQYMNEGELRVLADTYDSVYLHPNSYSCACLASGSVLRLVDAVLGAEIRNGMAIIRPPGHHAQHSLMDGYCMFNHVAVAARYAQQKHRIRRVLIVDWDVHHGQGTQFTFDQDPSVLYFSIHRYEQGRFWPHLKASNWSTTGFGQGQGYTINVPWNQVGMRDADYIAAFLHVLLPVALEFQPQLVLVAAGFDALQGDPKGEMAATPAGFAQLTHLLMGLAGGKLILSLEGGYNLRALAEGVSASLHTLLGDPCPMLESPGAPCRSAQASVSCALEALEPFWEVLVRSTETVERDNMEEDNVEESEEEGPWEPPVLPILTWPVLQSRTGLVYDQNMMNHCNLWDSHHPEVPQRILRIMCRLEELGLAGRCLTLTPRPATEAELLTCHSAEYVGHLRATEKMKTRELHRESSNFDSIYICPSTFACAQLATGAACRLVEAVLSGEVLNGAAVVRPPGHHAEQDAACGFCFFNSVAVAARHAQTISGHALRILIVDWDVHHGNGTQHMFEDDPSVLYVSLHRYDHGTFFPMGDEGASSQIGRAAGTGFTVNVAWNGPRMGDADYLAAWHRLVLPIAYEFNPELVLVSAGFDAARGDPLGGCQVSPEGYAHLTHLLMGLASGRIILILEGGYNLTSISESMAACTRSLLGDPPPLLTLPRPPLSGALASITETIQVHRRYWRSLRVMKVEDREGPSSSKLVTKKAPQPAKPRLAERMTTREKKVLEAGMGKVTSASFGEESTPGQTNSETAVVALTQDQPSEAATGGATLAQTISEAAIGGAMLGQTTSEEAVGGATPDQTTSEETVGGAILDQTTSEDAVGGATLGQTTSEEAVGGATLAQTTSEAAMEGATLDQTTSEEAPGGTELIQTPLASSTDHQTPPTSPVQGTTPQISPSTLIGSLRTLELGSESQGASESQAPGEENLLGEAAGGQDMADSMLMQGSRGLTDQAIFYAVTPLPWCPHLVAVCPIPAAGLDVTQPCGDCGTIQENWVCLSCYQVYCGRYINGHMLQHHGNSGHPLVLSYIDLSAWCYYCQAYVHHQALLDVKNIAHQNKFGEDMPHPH
Protocol: The inhibition of HDAC1 and 6 by the S1th and PR-619 was determined via the ZMAL-assay according to the same general procedure described for sirtuins (2.2.1). 5 μL substrate (10.5 μM final assay concentration) were mixed with 3 μL of inhibitor in DMSO or DMSO and 10 μL of HDAC solution (concentration adjusted to 15–30% conversion) and filled up to 60 μL with assay buffer (50 mM Tris, 137 mM NaCl, 1 mM MgCl2, 2,7 mM KCl, 1 mg/ml BSA, pH = 8.0). The mixture was incubated at 37°C and 140 rpm for 1.5 h. For the stop solution Trichostatin A (3.3 μM) was used instead of nicotinamide. Fluorescence intensity was measured as described above. An enzyme free blank control and an AMC containing 100% control were performed as well and inhibition was calculated in % in relation to a DMSO control.

deubiquitinases (DUBs) = assay: DUB labeling on HEK293T cell lysate with Rhodamine-Ub-PA probe; assay type: biochemical, human; set-up: key to Qualitative pan-DUB inhibition @ 10 μM / Qualitative pan-DUB inhibition @ 50 μM: n.i.: no inhibition (<10%); +: low inhibition; +++: full inhibition; details: for Qualitative pan-DUB inhibition @ 10 μM / Qualitative pan-DUB inhibition @ 50 μM: HEK293T cell lysate
Protocol: Pan-inhibition of deubiquitinases (DUBs) was tested using HEK293T cell lysate (human embryonic kidney cells, human). Cells were harvested and resuspended in HR buffer (50 mM Tris, 5 mM MgCl2, 250 mM sucrose, 1 mM DTT, pH 7.4). Cell lysis was achieved by sonication (Bioruptor, Diagenode, high intensity for 10 min with an ON/OFF cycle of 30 s) at 4°C and the cell debris was removed by centrifugation at 13,500 rpm for 15 min. Cell lysate protein concentration was determined with a NanoDrop spectrophotometer (NanoDrop One™ Spektrophotometer, Thermo Fisher, MA, USA) by measuring absorbance at 280 nm. Nineteen microliter of the lysate (2 μg/μL) were incubated with inhibitors dissolved in DMSO at various concentrations or DMSO as a control for 30 min at 37°C. Afterwards 1 μL of Rhodamine-Ub-PA (1 μM final assay concentration) was added to each sample, followed by further incubation for 40 min at 37°C ([61]). The labeling reaction was stopped by addition of NuPAGE 4× LDS sample buffer (Invitrogen Life Technologies, Carlsbad, CA, USA) containing β-mercaptoethanol and boiling for 7 min at 95°C. The proteins of the samples as well as protein marker (PageRuler™ Pre-stained Protein Ladder, 10–250 kDa, Thermo Fisher, MA, USA) were resolved by a 4–12% SDS-PAGE using the NuPAGE system with MOPS running buffer (Invitrogen Life Technologies, Carlsbad, CA, USA). The resulting gel was scanned with a Typhoon imager (GE Healthcare Life Sciences, USA) to visualize the Rhodamine-Ub-PA probe and Cy5 (marker). Subsequently the gel was stained with InstantBlue™ Protein Stain (Expedeon, UK) and scanned on a Amersham scanner (Amersham Typhoon gel and blot imaging system, GE Healthcare Life Sciences, USA).

Structure (SMILES) | inhibition at 100 µM (HDAC6) [%] | % inhibition @ 100 μM HDAC6 (HDAC6) [%] | residual activity HDAC6 (HDAC6) | Qualitative pan-DUB inhibition @ 10 μM (deubiquitinases (DUBs)) | Qualitative pan-DUB inhibition @ 50 μM (deubiquitinases (DUBs)) | inhibition of DUBs (in words) (deubiquitinases (DUBs); HEK cell lysate, Rhodamine-Ub-PA probe)
N#CSc1cc(SC#N)c(N)nc1N [PR-619, reference compound] | 49 |  | ~ 50% | + | +++ | inhibits all DUBs tested in a concentration dependent manner
COc1ccc(SC#N)cc1OCC(=O)N(CCC#N)CCC#N [S1th 12] | 36 |  |  | n.i. (no inhibition (<10%)) | n.i. (no inhibition (<10%)) | 

The next lines start with results.

inhibition at 100 µM (HDAC6) [%] | % inhibition @ 100 μM HDAC6 (HDAC6) [%] | Structure (SMILES) | residual activity HDAC6 (HDAC6) | Qualitative pan-DUB inhibition @ 10 μM (deubiquitinases (DUBs)) | Qualitative pan-DUB inhibition @ 50 μM (deubiquitinases (DUBs)) | inhibition of DUBs (in words) (deubiquitinases (DUBs); HEK cell lysate, Rhodamine-Ub-PA probe)
19 | 29 | N#CSc1cccc(NC(=O)[C@H]2CC=CC[C@H]2C(=O)O)c1 [S1th 10] |  | n.i. (no inhibition (<10%)) | n.i. (no inhibition (<10%)) | 
< 10 |  | CCCCNC(=O)Nc1cccc(SC#N)c1 [S1th 11] |  | n.i. (no inhibition (<10%)) | n.i. (no inhibition (<10%)) | 
29 | 19 | N#CSc1cccc(NS(=O)(=O)c2ccc3c(c2)OCCO3)c1 [S1th 13] |  | n.i. (no inhibition (<10%)) | n.i. (no inhibition (<10%)) | 
